The conditions of test [1]: MTHFR677 tt, retested 6 months later.
Source text: (§1) The test subject was given a fasting insulin test.
For test [2] the following is noted: MTHFR677 tt, retested 6 months later. This is another data set of the same source.
Source text: The HbA1C test is a common blood test used to diagnose type 1 and type 2 diabetes and then to gauge how well the subject is managing diabetes or the subjects risk of becoming diabetic. The A1C test result reflects the subjects average blood sugar level for the past two to three months. Specifically, the A1C test measures what percentage of the subject's hemoglobin is coated with sugar (glycated). […] According to the American Diabetes Association guidelines a HbA1C of between 4 and 5.6% falls within normal parameters, HbA1C between 5.7 and 6.4% are considered slightly elevated and indicate a prediabetic state as where HbA1C of greater than 6.5% is considered diabetic.
as §1

Structures are written as SMILES. Read-outs that look alike come from different tables or passages of the source.

As to `CN1c2c([nH]c(N)nc2=O)NC[C@@H]1CNc1ccc(C(=O)N[C@@H](CCC(=O)O)C(=O)O)cc1` [L-methylfolate], the fasting insulin level in test [1] (Example 1: person, 3 mgs L-methylfolate with 2 mgs methyl B12 once daily, before treatment 40 μU/ml) is given as 9 μU/ml; in test [1] (Example 2: person, 15 mgs L-methylfolate with 2 mgs methyl B12 once daily, before treatment 100 μU/ml), 11 μU/ml. Further, the HbA1C in test [2] (Example 1: person, 3 mgs L-methylfolate with 2 mgs methyl B12 once daily, before treatment 4.9%) is reported as 4.9%; in test [2] (Example 2: person, 15 mgs L-methylfolate with 2 mgs methyl B12 once daily, before treatment 5.3%), 5.3%.

Source of the values: patent publication US20150133397A1, “METHOD OF REDUCING FASTING INSULIN LEVELS IN MTHFR GENE DEFICIENT SUBJECTS WITH NORMAL TO SLIGHTLY ELEVATED HEMOGLOBIN A1C” (priority 2013, published 2015).
